Patent publication US20170157102A1, “USE OF PERHEXILINE” (CONSIGLIO NAZIONALE DELLE RICERCHE, priority 2014, published 2017)
Read-outs that look alike come from different tables or passages of the source.

Experiments:
[1] = system: adult parasites (schistosomes); details: treatment of adult parasites (Redman et al.); cited from earlier work
S. mansoni adult worms = assay: microbe, parasite or virus in culture; assay type: cell-based, Schistosoma mansoni
Experimental: FIG. 1. Adult worms (8 weeks old, S. mansoni) in vitro survival following overnight treatment with 10 μM PHX, 10 μM Gambogic Acid, 10 μM Praziquantel (PZQ) or DMSO (vehicle). Parasites death was assessed by optical examination each day using the following criteria: reduction of motility, tegumental damages and darker appearance. Data shown are the means of results of at least three experiments.
(§1) Seven-eight male worms or 4-5 worm pairs were recovered under aseptic conditions from infected mice by perfusion of mesenteric veins at 28 days (juvenile) or 56-days post infection (adult pairs) or 2-4 months post-infection (adult males). After washing, the worms were transferred into a 35 mm plates containing 3 mL of DMEM complete worms media and incubated at 37° C. in a humid atmosphere containing 5% CO2 with drugs overnight. Next, the worms were washed 3 times with drug-free medium and were incubated for 5 days at 37° C./5% CO2 and monitored daily under a stereo microscope for mobility, tegumental damage, viability and egg output (worm pairs). The experiment was repeated at least three times.
Male adult worms (7-8 worms/sample) obtained from infected mice were cultured at 37° C., 5% CO2 in DMEM complete medium (10% FBS) in presence of different concentrations of PHX (3-10 μM) and for variable time (12h to 5 days). For all experiments Gambogic Acid (1-10 μM) and PZQ (1-10 μM) were used as positive controls while DMSO was used as negative control. […] Parasites death was assessed by optical examination each day using the following criteria: reduction of motility, tegumental damages and darker appearance.

[2] = system: S. mansoni adult worm pairs; assay: Egg production of adult worm pairs in vitro; assay type: cell-based, Schistosoma mansoni; details: 5 μM overnight, vs DMSO control
Experimental: as §1
In order to test the effect of PHX on egg production, adult worm pairs were treated overnight using the sub lethal dose of 5 μM. Total number of eggs laid by female parasites was determined 3 and 6 days after the treatment. To do so, the medium containing the eggs was harvested and briefly centrifuged. The pellet containing the eggs was re-suspended in 500 μl of saline solution and the egg number was determined by microscopy analysis.

S. mansoni = assay: In vivo efficacy in mice infected with S. mansoni (total worm count, hepatic egg burden); details: two weeks after treatment
Experimental: FIG. 3. Effect of PHX on total worm count (A) and egg burdens (B) in mice infected with S. mansoni. One-way analysis of variance (one-way Anova) was used to compare means of the samples. The p-values are indicated. PZQ (Praziquantel, oral administration, 500 mg/kg), PERHEX LOW (PHX, oral administration, 23 mg/kg), PERHEX HIGH (PHX, oral administration, 70 mg/kg).
Female ICR (CD-1) outbred and C57BL/6, 4-7 weeks old mice (Harlan Laboratories) were housed under controlled conditions [(22±2)° C.; (65±15)% relative humidity; 12/12 h light/dark cycle]. The mice received standard food and water ad libitum. Female ICR (CD-1) outbred mice were infected transcutaneously with approximately 80 (for mixed infection) or 200 (single sex) S. mansoni cercariae for life cycle maintainance and in vitro worm assays. For in vivo experiments, C57BL/6 mice were infected with 140 cercariae and administered with selected compounds.
C57B/L6 inbred female mice (5-6 weeks old) were divided in 4 groups of 7 animals each and treated with DMSO (control), PZQ or two dosages of PHX. All compounds were administered orally (vehicle is 2.5% Cremophor EL) 42 days post infection. The amount of PHX administered (23 mg/kg and 70 mg/kg) was guided by available information of therapeutic dose in use for angina treatment (Ashrafian H., 2007); PZQ was used at the standard dose (500 mg/Kg). Toxicity of compounds (e.g., death and behavioral changes) was assessed daily during and after treatment until the time of euthanasia. At 56 days post infection, mice were euthanized with an intraperitoneal injection of Tiletamina/Zolazepam ([…])+Xylazina (100 mg/kg) and adult worms perfused as described above.
Compound efficacy in vivo, measured using a number of criteria, was compared to that of the anti-schistosomal drug, PZQ. The criteria include the numbers of male and female worms (total worm count) recovered by perfusion and hepatic egg burden (number of eggs in the liver). To recover eggs trapped in liver, whole livers from individual mice were excised, weighed and incubated in a 4% KOH solution over night at 37° C. Eggs were counted under a dissecting microscope as previously described (Cheever, A. W., 1968).
Based on the strong in vitro effects of PHX against larvae, juvenile (4 weeks old) and adult worms, the in vivo efficacy of the drug was tested in mice infected with S. mansoni. Based on the previous cardiovascular studies of the drug (Ashrafian H., 2007), two different concentrations of PHX were used: a low dose (23 mg/Kg) and a high dose (70 mg/Kg). […] Two weeks after the treatment, mice were sacrificed and the total worm count and egg burden (number of eggs in the liver) were determined (FIG. 3). […]

[3] = cited from earlier work
[4] = system: S. mansoni newly transformed schistosomula; assay: CellTiterGlo luminescent viability assay on schistosomula; details: 24 h; for CC50: values of two independent experiments
Experimental: Cercariae, shed from infected snails, were subsequently converted to schistosomula by mechanical transformation using an optimised version of the protocol of Brink et al., 1977 previously described (Protasio et al. 2013). Briefly, the cercarial suspension (approximately 50.000 cercariae) was placed in a glass 40 ml tube on ice for 60 minutes in order to reduce parasite motility. Tail detachment was obtained by shaking cercariae vigorously for approximately 30 seconds in a vortex mixer before passing these through a 22G syringe needle approximately 10-12 times. Next, the separation of heads/schistosomula and tails was obtained by placing the heads plus tails suspension on 4-5 ml of ice-cold 70% Percoll in tube and centrifugating (600×g) for 10 minutes at 4° C. Finally, the schistomula preparations were washed twice (with DMEM complete media lacking FBS) and microscope examination was used to assess the quantity and quality of purified schistosomula (less than 1% tails). Schistosomula were cultured at 37° C. in 6 wells tissue culture plates containing 3 ml schistosomula complete media in an atmosphere of 5% CO2 for 24 hr before any further experimental manipulations proceeded. Negligible parasite death occurred in this media during the 24 hr culturing period. Following this, schistosomula were aliquoted into flat-bottom 384-well black-sided for compound assays.
Compounds are stored as solution of 100% DMSO at −20 ° C. under inert atmosphere. Intermediate storage microplates, in the 384 well/plate format, are prepared on demand and stored in the same controlled environment as the stock solutions. Intermediate microplate stored compounds are transferred to assay plates by the acoustic droplet ejection technology (ATS-100, EDC Biosystems USA) which ensures a safe, contactless, pre-dilution free delivery. The test set was transferred to 384 well, black, tissue culture treated destination plate. […]
The plate set was let to incubate with the compounds at 37° C./5% CO2 for 24 hours. […] The readout, luminescence based, was carried out by a CCD based detector (ViewLux, PerkinElmer USA). […]

[5] = system: S. mansoni juvenile worms (4 weeks old); assay type: cell-based, Schistosoma mansoni; details: 10 μM overnight, at 5 days
Experimental: FIG. 2. Juvenile worms (4 weeks old, S. mansoni) in vitro survival following overnight treatment with 10 μM PHX, 10 μM Gambogic Acid, 10 μM Praziquantel (PZQ) or DMSO (vehicle). Parasites death was assessed by optical examination each day using the following criteria: reduction of motility, tegumental damages and darker appearance. Data shown are the means of results of at least three experiments.
as §1
Juvenile worms (4 weeks old parasites) were also tested at the same conditions reported above. Following over night incubation of PHX (10 μM), viability of parasites was reduced by 80% after 5 days of observation (FIG. 2). […]

[6] = system: S. mansoni juvenile worms; details: at 8 days; previous report (Livia-Pica et al, 2004); cited from earlier work
S. mansoni worms = details: juvenile 4 weeks after infection vs adult 6 or 7 weeks, mice (Pica-Mattoccia et al., 2004); cited from earlier work
[7] = HIGH dose 70 mg/Kg oral single dose
[8] = LOW dose 23 mg/Kg oral single dose

## Cl.N [NH4Cl]
[1]
  rate of BODIPY FL C5-sphyngomyelin breakdown: no decrease

## C1CCC(C(CC2CCCCN2)C2CCCCC2)CC1 (stereo not shown) [Perhexiline, 2-(2,2-dicyclohexylethyl)piperidine]
S. mansoni adult worms; 3 μM
  effect on viability of adult worms: no effect
S. mansoni adult worms; Schistosoma mansoni, read-out: reduced viability of adult worms
  inhibition at 5 µM: ~50%
S. mansoni adult worms; overnight incubation 10 μM, after 5 days
  viability of adult parasites: statistically significant decreased viability
[2]; 3 days after treatment
  reduction in egg production: around 60%
[2]; 6 days after treatment
  reduction in egg production: around 60%
S. mansoni; [7]
  decrease in total worm counts: 63%
  reduction of egg burden (number of eggs in the liver): 60%
S. mansoni; [8]
  decrease in total worm counts: 35%
  reduction of egg burden (number of eggs in the liver): 50%
[3]; CYP2D6 polymorphisms
  inter-individual differences in apparent oral clearance: approximately 100 fold
[3]; most subjects
  plasma half-life: 24 to 48 h
[3]; poor metabolizers (CYP2D6)
  plasma half-life: up to 40 days
[3]; range that avoids hepatotoxicity and peripheral neuropathy (Horowitz et al 1986)
  defined therapeutic range of plasma concentration: 0.15-0.6 mg 1^−1
[1]
  rate of BODIPY FL C5-sphyngomyelin breakdown: no decrease
[4]; Schistosoma mansoni, read-out: CC50 of newly transformed schistosomula, 24 h, 0.019-50 μM, four parameter fit
  CC50: 9.56 µM
[4]; read-out: CC50 of newly transformed schistosomula, 0.019-50 μM, four parameter fit
  CC50: 12.4 µM
[4]; single concentration 10 μM, threshold 70% cytotoxicity, scaled DMSO 0% / gambogic acid 100%
  cytotoxicity in the initial screen: positive compound

## O=C(C1CCCCC1)N1CC(=O)N2CCc3ccccc3C2C1 (stereo not shown) [Praziquantel]
[5]
  survival rate of juvenile worms: 50%
[6]
  survival of juvenile worms: approximately 80%
S. mansoni worms
  ED50 against juvenile worms relative to adult worms: at least 30 times

## CNCCCN1c2ccccc2CCc2ccccc21 [desipramine]
[1]
  rate of BODIPY FL C5-sphyngomyelin breakdown: no decrease
